Where a name gives a salt, the structure may show the parent alone.
Molecular target: T1, HCV polymerase (Hepatitis C virus genotype 1b, UniProt P26663)
T1 construct: a region encoding NS5B (591 amino acids; J Virol 1991 Mar, 65(3), 1105-13) was amplified by PCR; 6 His (N); made in house; host or cells: Escherichia coli
Experiment: biochemical
Conditions: read-out: HCV polymerase inhibitory activity IC50

T1 sequence (P26663 2420-3010): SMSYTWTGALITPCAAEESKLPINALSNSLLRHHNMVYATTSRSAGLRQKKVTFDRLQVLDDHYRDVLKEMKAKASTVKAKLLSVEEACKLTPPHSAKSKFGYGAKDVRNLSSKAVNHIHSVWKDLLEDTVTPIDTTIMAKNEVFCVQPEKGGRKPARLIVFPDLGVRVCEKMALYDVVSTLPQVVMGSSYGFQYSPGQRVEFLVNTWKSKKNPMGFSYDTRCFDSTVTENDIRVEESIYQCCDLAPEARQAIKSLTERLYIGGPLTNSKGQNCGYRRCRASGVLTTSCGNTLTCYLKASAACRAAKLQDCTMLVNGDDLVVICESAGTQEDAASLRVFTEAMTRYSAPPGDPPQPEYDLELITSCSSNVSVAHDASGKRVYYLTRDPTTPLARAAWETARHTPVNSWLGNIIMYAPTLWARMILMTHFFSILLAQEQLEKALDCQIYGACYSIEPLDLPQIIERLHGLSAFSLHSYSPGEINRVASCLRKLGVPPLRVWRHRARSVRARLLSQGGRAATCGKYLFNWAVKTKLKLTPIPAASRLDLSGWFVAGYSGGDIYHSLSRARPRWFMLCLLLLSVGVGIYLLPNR

SMILES | IC50 [µM]
O=C(O)c1ccc2c(c1)nc(-c1ccc(OCc3cc(-c4nnn[nH]4)ccc3-c3ccc(Cl)cc3)cc1)n2C1CCCCC1 [Example 367, 2-{4-[2-(4-chlorophenyl)-5-tetrazol-5-ylbenzyloxy]phenyl}-1-cyclohexylbenzimidazole-5-carboxylic acid hydrochloride] | 0.011
O=C(O)c1ccc2c(c1)nc(-c1ccc(OCc3cc(Cl)ccc3-c3ccc(-c4nnn[nH]4)cc3)cc1)n2C1CCCCC1 [Example 369, 2-{4-[5-chloro-2-(4-tetrazol-5-ylphenyl)benzyloxy]phenyl}-1-cyclohexylbenzimidazole-5-carboxylic acid hydrochloride] | 0.022
O=C(O)c1ccc2c(c1)nc(-c1ccc(OCc3cc(OCCN4CCC(O)CC4)ccc3-c3ccc(Cl)cc3)cc1)n2C1CCCCC1 [Example 370, 2-{4-[2-(4-chlorophenyl)-5-{2-(4-hydroxypiperidin-1-yl)ethoxy}benzyloxy]phenyl}-1-cyclohexylbenzimidazole-5-carboxylic acid hydrochloride] | 0.017
O=C(O)c1ccc2c(c1)nc(-c1ccc(OCc3cc(N4CCCCC4=O)ccc3-c3ccc(Cl)cc3)cc1F)n2C1CCCCC1 [Example 371, 2-{4-[2-(4-chlorophenyl)-5-(2-oxopiperidin-1-yl)benzyloxy]-2-fluorophenyl}-1-cyclohexylbenzimidazole-5-carboxylic acid hydrochloride] | 0.015
CN(C)C(=O)c1cc(COc2ccc(-c3nc4cc(C(=O)O)ccc4n3C3CCCCC3)c(F)c2)cc(-c2ccc(Cl)cc2)c1 [Example 372, 2-{4-[3-(4-chlorophenyl)-5-(dimethylcarbamoyl)benzyloxy]-2-fluorophenyl}-1-cyclohexylbenzimidazole-5-carboxylic acid hydrochloride] | 0.033
N/C(=N\O)c1ccc(-c2ccc(Cl)cc2)c(COc2ccc(-c3nc4cc(C(=O)O)ccc4n3C3CCCCC3)c(F)c2)c1 [Example 373, 2-{4-[2-(4-chlorophenyl)-5-(N-hydroxyamidino)benzyloxy]-2-fluorophenyl}-1-cyclohexylbenzimidazole-5-carboxylic acid dihydrochloride] | 0.013
O=C(O)c1ccc2c(c1)nc(-c1ccc(OCc3cc(-c4noc(=O)[nH]4)ccc3-c3ccc(Cl)cc3)cc1F)n2C1CCCCC1 [Example 374, 2-{4-[2-(4-chlorophenyl)-5-(2,5-dihydro-5-oxo-4H-1,2,4-oxadiazol-3-yl)benzyloxy]-2-fluorophenyl}-1-cyclohexylbenzimidazole-5-carboxylic acid hydrochloride] | 0.013
O=C(O)c1ccc2c(c1)nc(-c1ccc(OCc3cc(C4=NOS(=O)N4)ccc3-c3ccc(Cl)cc3)cc1F)n2C1CCCCC1 (stereo not drawn) [Example 375, 2-{4-[2-(4-chlorophenyl)-5-(2-oxo-3H-1,2,3,5-oxathiadiazol-4-yl)benzyloxy]-2-fluorophenyl}-1-cyclohexylbenzimidazole-5carboxylic acid hydrochloride] | 0.012
O=C(O)c1ccc2c(c1)nc(-c1ccc(OCc3cc(-c4nsc(=O)[nH]4)ccc3-c3ccc(Cl)cc3)cc1F)n2C1CCCCC1 [Example 376, 2-{4-[2-(4-chlorophenyl)-5-(2,5-dihydro-5-oxo-4H-1,2,4-thiadiazol-3-yl)benzyloxy]-2-fluorophenyl}-1-cyclohexylbenzimidazole-5-carboxylic acid hydrochloride] | 0.014
O=C(O)c1ccc2c(c1)nc(-c1ccc(OCc3cc(C(=O)NC4CC4)ccc3-c3ccc(Cl)cc3)cc1F)n2C1CCCCC1 [Example 377, 2-{4-[2-(4-chlorophenyl)-5-(cyclopropylcarbamoyl)benzyloxy]-2-fluorophenyl}-1-cyclohexylbenzimidazole-5-carboxylic acid hydrochloride] | 0.012
O=C(O)c1ccc2c(c1)nc(-c1ccc(OCc3cc(C(=O)NC4CCC4)ccc3-c3ccc(Cl)cc3)cc1F)n2C1CCCCC1 [Example 378, 2-{4-[2-(4-chlorophenyl)-5-(cyclobutylcarbamoyl)benzyloxy]-2-fluorophenyl}-1-cyclohexylbenzimidazole-5-carboxylic acid hydrochloride] | 0.018
CC(C)(C)NC(=O)c1ccc(-c2ccc(Cl)cc2)c(COc2ccc(-c3nc4cc(C(=O)O)ccc4n3C3CCCCC3)c(F)c2)c1 [Example 379, 2-{4-[2-(4-chlorophenyl)-5-(tert-butylcarbamoyl)benzyloxy]-2-fluorophenyl}-1-cyclohexylbenzimidazole-5-carboxylic acid hydrochloride] | 0.021
CC(C)CNC(=O)c1ccc(-c2ccc(Cl)cc2)c(COc2ccc(-c3nc4cc(C(=O)O)ccc4n3C3CCCCC3)c(F)c2)c1 [Example 380, 2-{4-[2-(4-chlorophenyl)-5-(isobutylcarbamoyl)benzyloxy]-2-fluorophenyl}-1-cyclohexylbenzimidazole-5-carboxylic acid hydrochloride] | 0.023
CC(CO)NC(=O)c1ccc(-c2ccc(Cl)cc2)c(COc2ccc(-c3nc4cc(C(=O)O)ccc4n3C3CCCCC3)c(F)c2)c1 (stereo not drawn) [Example 381, 2-{4-[2-(4-chlorophenyl)-5-{(1-hydroxypropan-2-yl)carbamoyl}-benzyloxy]-2-fluorophenyl}-1-cyclohexylbenzimidazole-5-carboxylic acid hydrochloride] | 0.011
CONC(=O)c1ccc(-c2ccc(Cl)cc2)c(COc2ccc(-c3nc4cc(C(=O)O)ccc4n3C3CCCCC3)c(F)c2)c1 [Example 382, 2-{4-[2-(4-chlorophenyl)-5-(methoxycarbamoyl)benzyloxy]-2-fluorophenyl}-1-cyclohexylbenzimidazole-5-carboxylic acid hydrochloride] | 0.015
O=C(O)c1ccc2c(c1)nc(-c1ccc(OCc3cc(C(=O)NCC(O)CO)ccc3-c3ccc(Cl)cc3)cc1F)n2C1CCCCC1 (stereo not drawn) [Example 383, 2-{4-[2-(4-chlorophenyl)-5-{(2,3-dihydroxypropyl)carbamoyl}-benzyloxy]-2-fluorophenyl}-1-cyclohexylbenzimidazole-5-carboxylic acid hydrochloride] | 0.013
CCN(C)C(=O)c1ccc(-c2ccc(Cl)cc2)c(COc2ccc(-c3nc4cc(C(=O)O)ccc4n3C3CCCCC3)c(F)c2)c1 [Example 384, 2-{4-[2-(4-chlorophenyl)-5-(N-ethyl-N-methylcarbamoyl)benzyloxy]-2-fluorophenyl}-1-cyclohexylbenzimidazole-5-carboxylic acid hydrochloride] | 0.016
CCCN(C)C(=O)c1ccc(-c2ccc(Cl)cc2)c(COc2ccc(-c3nc4cc(C(=O)O)ccc4n3C3CCCCC3)c(F)c2)c1 [Example 385, 2-{4-[2-(4-chlorophenyl)-5-(N-methyl-N-propylcarbamoyl)-benzyloxy]-2-fluorophenyl}-1-cyclohexylbenzimidazole-5-carboxylic acid hydrochloride] | 0.019
CC(C)N(C)C(=O)c1ccc(-c2ccc(Cl)cc2)c(COc2ccc(-c3nc4cc(C(=O)O)ccc4n3C3CCCCC3)c(F)c2)c1 [Example 386, 2-{4-[2-(4-chlorophenyl)-5-(N-isopropyl-N-methylcarbamoyl)-benzyloxy]-2-fluorophenyl}-1-cyclohexylbenzimidazole-5-carboxylic acid hydrochloride] | 0.018
C[C@@H]1CCC[C@H](C)N1C(=O)c1ccc(-c2ccc(Cl)cc2)c(COc2ccc(-c3nc4cc(C(=O)O)ccc4n3C3CCCCC3)c(F)c2)c1 [Example 387, 2-{4-[2-(4-chlorophenyl)-5-(2,6-dimethylpiperidin-1-ylcarbonyl)-benzyloxy]-2-fluorophenyl}-1-cyclohexylbenzimidazole-5-carboxylic acid hydrochloride] | 0.025
CCCCNC(=O)c1ccc(-c2ccc(Cl)cc2)c(COc2ccc(-c3nc4cc(C(=O)O)ccc4n3C3CCCCC3)c(F)c2)c1 [Example 388, 2-{4-[5-(butylcarbamoyl)-2-(4-chlorophenyl)benzyloxy]-2-fluorophenyl}-1-cyclohexylbenzimidazole-5-carboxylic acid hydrochloride] | 0.02
CCCNC(=O)c1ccc(-c2ccc(Cl)cc2)c(COc2ccc(-c3nc4cc(C(=O)O)ccc4n3C3CCCCC3)c(F)c2)c1 [Example 389, 2-{4-[2-(4-chlorophenyl)-5-(propylcarbamoyl)benzyloxy]-2-fluorophenyl}-1-cyclohexylbenzimidazole-5-carboxylic acid hydrochloride] | 0.012
CCNC(=O)c1ccc(-c2ccc(Cl)cc2)c(COc2ccc(-c3nc4cc(C(=O)O)ccc4n3C3CCCCC3)c(F)c2)c1 [Example 390, 2-{4-[2-(4-chlorophenyl)-5-(ethylcarbamoyl)benzyloxy]-2-fluorophenyl}-1-cyclohexylbenzimidazole-5-carboxylic acid hydrochloride] | 0.014
CN(C)C(=O)Nc1ccc(-c2ccc(Cl)cc2)c(COc2ccc(-c3nc4cc(C(=O)O)ccc4n3C3CCCCC3)c(F)c2)c1 [Example 391, 2-{4-[2-(4-chlorophenyl)-5-{(dimethylcarbamoyl)amino}benzyloxy]-2-fluorophenyl}-1-cyclohexylbenzimidazole-5-carboxylic acid hydrochloride] | 0.017
O=C(O)c1ccc2c(c1)nc(-c1ccc(OCc3cc(NC(=O)N4CCOCC4)ccc3-c3ccc(Cl)cc3)cc1F)n2C1CCCCC1 [Example 392, 2-{4-[2-(4-chlorophenyl)-5-{(morpholinocarbonyl)amino}benzyloxy]-2-fluorophenyl}-1-cyclohexylbenzimidazole-5-carboxylic acid hydrochloride] | 0.014
NC(=O)Nc1ccc(-c2ccc(Cl)cc2)c(COc2ccc(-c3nc4cc(C(=O)O)ccc4n3C3CCCCC3)c(F)c2)c1 [Example 393, 2-{4-[2-(4-chlorophenyl)-5-ureidobenzyloxy]-2-fluorophenyl}-1-cyclohexylbenzimidazole-5-carboxylic acid hydrochloride] | 0.011
CCNC(=O)Nc1ccc(-c2ccc(Cl)cc2)c(COc2ccc(-c3nc4cc(C(=O)O)ccc4n3C3CCCCC3)c(F)c2)c1 [Example 394, 2-{4-[2-(4-chlorophenyl)-5-{(ethylcarbamoyl)amino}benzyloxy]-2-fluorophenyl}-1-cyclohexylbenzimidazole-5-carboxylic acid hydrochloride] | 0.019

From US20040082635A1, “Fused cyclic compounds and medicinal use thereof” (priority 2001, published 2004)
